Measured values as given in patent US9376506B2, “Method for producing sialic-acid-containing sugar chain” (GLYTECH, INC., priority 2011, dated 2016).
Like-named read-outs stand apart in the source and are kept apart here.

How the values were obtained:
[1] = Stability of CMP-Neu5Ac (CMP formation, HPLC); format: physicochemical; settings: 5 mM CMP-Neu5Ac/0.1 M MOPS (pH 7.3), after 24 hours
Protocol: In order to confirm whether CMP was formed by the degradation of the substrate donor CMP-Neu5Ac, 5 mM CMP-Neu5Ac/0.1 M MOPS (pH 7.3) was incubated at 25° C., 30° C., 33° C., or 37° C., and the amount of CMP formed was measured. The measurement was performed by HPLC using a column TSKgel SuperQ-5PW (7.5×75 mm; Tosoh Corp.) and 50 mM KPi (pH 8.0) as a solvent. A UV detector (detection wavelength: 254 nm) was used for the detection. The degree of CMP formation was indicated by [Peak area of CMP]/[Peak area of CMP+Peak area of CMP-Neu5Ac]×100(%). After 24 hours, 45% CMP was formed at 37° C., whereas 21% CMP was formed at 30° C., which was about half of that formed at 37° C.

ST6Gal-I = biological target: T1, ST6Gal-I (Homo sapiens, UniProt P15907); settings: 0.25 mM CMP, cited from earlier work
T1 sequence (P15907 1-406): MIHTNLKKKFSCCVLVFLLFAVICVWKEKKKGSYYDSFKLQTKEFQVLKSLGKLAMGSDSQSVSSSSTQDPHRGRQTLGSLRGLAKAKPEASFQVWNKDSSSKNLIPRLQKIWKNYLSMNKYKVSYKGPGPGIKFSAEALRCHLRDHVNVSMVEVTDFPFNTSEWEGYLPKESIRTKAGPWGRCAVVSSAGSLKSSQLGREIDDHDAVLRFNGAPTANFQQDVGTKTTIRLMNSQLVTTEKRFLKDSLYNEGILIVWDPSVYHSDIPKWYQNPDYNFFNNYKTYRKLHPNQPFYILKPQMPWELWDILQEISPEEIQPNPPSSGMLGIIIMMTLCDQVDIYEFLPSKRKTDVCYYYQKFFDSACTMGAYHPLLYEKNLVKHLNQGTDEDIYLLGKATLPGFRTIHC

CMP formed, [Peak area of CMP]/[Peak area of CMP+Peak area of CMP-Neu5Ac]×100 ([1]; 30° C.) [%] | CMP formed, [Peak area of CMP]/[Peak area of CMP+Peak area of CMP-Neu5Ac]×100 ([1]; 37° C.) [%] | SMILES | product inhibition of ST6Gal-I by CMP (ST6Gal-I; Non Patent Literature 5) [%] | product inhibition of ST6Gal-I by CMP (ST6Gal-I; Non Patent Literature 6) [%]
21 | 45 | CC(=O)N[C@H]1[C@H]([C@H](O)[C@H](O)CO)O[C@](OP(=O)(O)OC[C@H]2O[C@@H](n3ccc(N)nc3=O)[C@H](O)[C@@H]2O)(C(=O)O)C[C@@H]1O [CMP-Neu5Ac, CMP-N-acetylneuraminic acid] | – | –
– | – | Nc1ccn([C@@H]2O[C@H](COP(=O)(O)O)[C@@H](O)[C@H]2O)c(=O)n1 [CMP, cytidine monophosphate] | 49 | 71
